Laboratory results as given in US20220079915A1, “IMMUNOSUPPRESSIVE PHARMACEUTICAL COMPOSITION AND APPLICATION THEREOF” (Shanghai Archeus Biotech Co., Ltd., priority 2018, published 2022).

Key:
[1] = system: mouse psoriasis model induced by Imiquimod; experiment: Mouse psoriasis model induced with imiquimod; format: in vivo; conditions: for relieving of inflammatory thickening of the model right ear: end point of 7-day administration
Description: Animal strain: 28 male BALB/c mice, 6-8 weeks old, SPF environment, 12 hours light and dark cycle, 24-26 degrees Celsius. Blank group: no treatment, n=3; […] High-dose compound test group: 3.5 mg/kg drug intraperitoneal injection+5% imiquimod ointment, n=5; Low-dose compound test group: 0.8 mg/kg drug intraperitoneal injection+5% imiquimod ointment, n=5; Combined drugs test group: 0.8 mg/kg drug intraperitoneal injection+0.0025% PGE2 (administered epidermally in 75% ethanol)+5% imiquimod ointment, n=5; Day 0: anesthetized the mouse, shaved the back with an area about 2*3 cm; Day1-7: every other day, measured the mouse body weight, left and right ear thickness, and observed the skin to obtain a score; Day7: killed the mouse, sampled the back skin and fixed in 4% PFA solution for H&E staining; Model Group Induced with Imiquimod: Day 0: anesthetized the mouse, shaved the back with an area about 2*3 cm; Day1-7: every other day, measured the mouse body weight, left and right ear thickness, and observed the skin to obtain a score; […] Massaged moderately against the direction of the hair to help absorption; Day1-7: […] Massaged moderately against the direction of the hair to help absorption; Day7: killed the mouse, sampled the back skin and fixed in 4% PFA solution for H&E staining; Day 0: anesthetized the mouse, shaved the back with an area about 2*3 cm; Day1-7: every other day, measured the mouse body weight, left and right ear thickness, and observed the skin to obtain a score; […] Day1-7: then injected intraperitoneally 3.5 mg/kg in 200 μL sterile DPBS; Day1-7: then applied 62.5 mg of imiquimod ointment on the shaved area on the back of each mouse, applied 250 μg of imiquimod ointment on the inside and outside of the right ear, and massaged moderately against the direction of hair to help absorption; Day7: killed the mouse, sampled the back skin and fixed in 4% PFA solution for H&E staining; Day 0: anesthetized the mouse, shaved the back with an area about 2*3 cm; Day1-7: every other day, measured the mouse body weight, left and right ear thickness, and observed the skin to obtain a score; […] Day1-7: then injected intraperitoneally 0.8 mg/kg in 200 μL sterile DPBS; Day1-7: then applied 62.5 mg of imiquimod ointment on the shaved area on the back of each mouse, applied 250 μg of imiquimod ointment on the inside and outside of the right ear, and massaged moderately against the direction of hair to help absorption; Day7: killed the mouse, sampled the back skin and fixed in 4% PFA solution for H&E staining; Group Treated with Compound in Combination with PGE2: Day 0: anesthetized the mouse, shaved the back with an area about 2*3 cm; Day1-7: every other day, measured the mouse body weight, left and right ear thickness, and observed the skin to obtain a score; Day1-7: […] Day-7: then injected intraperitoneally 0.8 mg/kg in 200 μL sterile DPBS; Day1-7: one hour after PGE2 administration, applied 62.5 mg of imiquimod ointment on the shaved area on the back of each mouse, and applied 250 μg of imiquimod ointment on the inside and outside of the right ear. […] The area was fixed in the disease model and was not considered, and the other three aspects were quantified as follows: 0=asymptomatic, 1=mild, 2=moderate, 3=significant, 4=very significant; Changes of the thickening of the ear; Body weight; Skin histological changes (H&E staining).

IL-17A = IL-17A secretion of mouse spleen Naïve CD4+ T cells induced to differentiate to Th17 cells by cytokines, ELISA; format: cell-based
Description: 1) Pre-coated the 96-well plate with 2 μg/mL anti-mouse CD3e and incubated overnight at 4 degrees Celsius: 2) Separated fresh spleens from adult C57BL/6 female mice (8-12 weeks old), ground and filtered through a […] nylon cell strainer to obtain a single cell suspension in pre-cooled DPBS; 3) Washed the spleen cells again with DPBS, and resuspended in RoboSep™ buffer at a density of 1×10^8/mL; 4) Separated primary CD4+ T cells with mouse primary CD4+ T cell isolation kit as required by the kit; 5) Resuspended the isolated CD4+ T cells in complete medium (RPMI 1640 medium+10% inactivated FBS+1% double antibiotics) at a density of 1×10^6/mL; 6) Washed the 96-well plate pre-coated with anti-mouse CD3e twice with DPBS, added 50 μL of cytokine cocktail, the composition and final concentration of which are shown in Table 6 below, and then added 50 μL of compound solution (the final concentration of DMSO was 0.1%). Added 100 μL of cell suspension to each well to allow the final cell number per well to be 1×10^5/100 μL; [table] 7) Cultured the cells for 7 days under the above conditions. The culture conditions were 37 degrees Celsius, 5% CO2 concentration; 8) After 7 days, added 1× stimulation cocktail (eBioscience 500X) to the culture medium for 4 hours, and then collected cell culture supernatant for detection with IL-17A enzyme-linked immunoassay kit; 9) Completed the detection of supernatant IL-17A concentration with mouse IL-17 DuoSet ELISA kit; 10) Read the OD450 nm absorbance value with a microplate reader, and generated the standard curve by using the 4-parameter logistic fitting (4-PL) method. 1) Diluted the capture antibody (provided in the kit) to a working concentration in PBS without carrier protein, that is, a 96-well plate can be coated with 100 microliters per well. Sealed and incubated the plate overnight at room temperature; 2) Aspirated the coating buffer of the well plate, and eluted with 400 microliters of eluent (provided in the kit) for three times, aspirating as much liquid as possible each time; 3) Added 300 microliters of diluent (provided in the kit) to each well, and equilibrated for 1 hour at room temperature; 4) Eluted the well plate as in the above step 2) to be ready for the addition of sample; ) Added 100 microliters of sample or standard to each well containing the added diluent, and sealed and incubated the well plate for 2 hours at room temperature; 6) Eluted the well plate as in the above step 2); 7) Added 100 microliters of detector antibody (provided in the kit) to each well, and sealed and incubated the well plate for 2 hours at room temperature. 8) Eluted the well plate as in the above step 2); 9) Added 100 microliters of Streptavidin-HRP working solution (provided in the kit) to each well, and sealed and incubated the well plate in dark for 20 minutes at room temperature. 10) Eluted the well plate as in the above step 2); 11) Added 100 microliters of reaction substrate solution (provided in the kit) to each well, and incubated at room temperature for 20 minutes, protected from light: 12) Added 50 microliters of stop solution (provided in the kit) to each well, and tapped the well plate to ensure that the liquid is evenly mixed; 13) Detected the optical density value of each well at […]. The values could be corrected by deducting the values at 540 nm or 570 nm.

[2] = high-dose group 3.5 mg/kg intraperitoneal
[3] = low-dose group 0.8 mg/kg intraperitoneal

SMILES: C=C[C@@]1(C)CC(=O)C2(O)[C@@]3(C)C(O)CCC(C)(C)C3[C@H](OC(=O)CCN(C)C)[C@H](OC(C)=O)[C@@]2(C)O1.Cl (stereo partly shown) [6-[3-(dimethylamino)propionyl]forskolin hydrochloride]
- thickness of epidermis and stratum corneum of back skin (H&E staining) ([1]; day 7, compared with the model group, FIG. 20): different degrees of thickness reduction
- day of administration on which disease alleviation showed (back skin psoriasis-like index score) [1, 2]: 3 days
- relieving of inflammatory thickening of the model right ear [1, 2]: 39%
- day of administration on which the effect began (back skin psoriasis-like index score) [1, 3]: 5 days
- relieving of inflammatory thickening of the model right ear [1, 3]: 30%
- IL-17A level, % of the positive control (IL-17A; 0.5 μM alone): 88%
- reduction in IL-17A levels (IL-17A; 0.5 μM used alone): 12%
- IL-17A level, % of the positive control (IL-17A; 1 μM alone): 19%
- IL-17A, % of the basic level (IL-17A; 1 μM compound alone, FIG. 10): 18%
- inhibition at 10 µM (IL-17A; Mus musculus, CD4+ T, 168 h, 10 μM, 7 days cytokine induction, FIG. 8, read-out: inhibition of the positive control IL-17A level): ~97%
- inhibition at 1 µM (IL-17A; Mus musculus, CD4+ T, 1 μM alone, FIG. 10, read-out: reduction in IL-17A levels (inhibitory effect)): 81%
- IL-17A treatment value, A (IL-17A; Table 7, relative to control, 0.5 μM): 88%
- IL17-A treatment value, A (IL-17A; Table 8, relative to control, 0.5 μM): 88%
